# Test results reported in the supplement of paper PMC11451515.
# System: P12-Ichikawa
# Assay: cell viability relative to DMSO control; higher = less cytotoxic
# Details: 48 h
# Method in brief: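 In 1536-well plates, 5 μl of leukemia cells were seeded per well: 500 cells/well for NOMO1 or SEM and 1000 cells/well for P12-Ichikawa. Each line had first been adapted for at least four passages in each medium. Library compounds in DMSO were pin-dosed at 11 threefold concentrations between 47 μM and 0.79 nM, and CellTiter-Glo One luminescence was read after 48 h at 37°C. Viability is a per-plate percentage relative to DMSO wells, with cell-free wells as background.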
# [1] = HPLM + 10% dialyzed FBS, 0.000781 µM
# [2] = HPLM + 10% dialyzed FBS, 0.00234 µM
# [3] = HPLM + 10% dialyzed FBS, 0.00702 µM
# [4] = HPLM + 10% dialyzed FBS, 0.0211 µM
# [5] = HPLM + 10% dialyzed FBS, 0.0632 µM
# [6] = HPLM + 10% dialyzed FBS, 0.19 µM
# [7] = HPLM + 10% dialyzed FBS, 0.569 µM
# [8] = HPLM + 10% dialyzed FBS, 1.71 µM
# [9] = HPLM + 10% dialyzed FBS, 5.12 µM
# [10] = HPLM + 10% dialyzed FBS, 15.4 µM
# [11] = HPLM + 10% dialyzed FBS, 46.1 µM
# [12] = RPMI 5 mM glucose + 10% FBS, 0.000781 µM
# [13] = RPMI 5 mM glucose + 10% FBS, 0.00234 µM
# [14] = RPMI 5 mM glucose + 10% FBS, 0.00702 µM
# [15] = RPMI 5 mM glucose + 10% FBS, 0.0211 µM
# [16] = RPMI 5 mM glucose + 10% FBS, 0.0632 µM
# [17] = RPMI 5 mM glucose + 10% FBS, 0.19 µM
# [18] = RPMI 5 mM glucose + 10% FBS, 0.569 µM
# [19] = RPMI 5 mM glucose + 10% FBS, 1.71 µM
# [20] = RPMI 5 mM glucose + 10% FBS, 5.12 µM
# [21] = RPMI 5 mM glucose + 10% FBS, 15.4 µM
# [22] = RPMI 5 mM glucose + 10% FBS, 46.1 µM
# [23] = RPMI 5 mM glucose + 10% dialyzed FBS, 0.000781 µM
# [24] = RPMI 5 mM glucose + 10% dialyzed FBS, 0.00234 µM
# [25] = RPMI 5 mM glucose + 10% dialyzed FBS, 0.00702 µM
# [26] = RPMI 5 mM glucose + 10% dialyzed FBS, 0.0211 µM
# [27] = RPMI 5 mM glucose + 10% dialyzed FBS, 0.0632 µM
# [28] = RPMI 5 mM glucose + 10% dialyzed FBS, 0.19 µM
# [29] = RPMI 5 mM glucose + 10% dialyzed FBS, 0.569 µM
# [30] = RPMI 5 mM glucose + 10% dialyzed FBS, 1.71 µM
# [31] = RPMI 5 mM glucose + 10% dialyzed FBS, 5.12 µM
# [32] = RPMI 5 mM glucose + 10% dialyzed FBS, 15.4 µM
# [33] = RPMI 5 mM glucose + 10% dialyzed FBS, 46.1 µM
Compound,cell viability [1] [%],cell viability [2] [%],cell viability [3] [%],cell viability [4] [%],cell viability [5] [%],cell viability [6] [%],cell viability [7] [%],cell viability [8] [%],cell viability [9] [%],cell viability [10] [%],cell viability [11] [%],cell viability [12] [%],cell viability [13] [%],cell viability [14] [%],cell viability [15] [%],cell viability [16] [%],cell viability [17] [%],cell viability [18] [%],cell viability [19] [%],cell viability [20] [%],cell viability [21] [%],cell viability [22] [%],cell viability [23] [%],cell viability [24] [%],cell viability [25] [%],cell viability [26] [%],cell viability [27] [%],cell viability [28] [%],cell viability [29] [%],cell viability [30] [%],cell viability [31] [%],cell viability [32] [%],cell viability [33] [%]
CC(C)Oc1cc(Nc2nc(N[C@@H](C)c3ccc(F)cn3)ncc2Cl)n[nH]1,111,111,116,112,110,115,106,13.3,14.7,29.6,41.1,104,92.9,105,106,108,110,104,15.2,17,27.5,40,113,113,108,114,115,116,105,27.9,30.5,46.6,55.5
C\C1=C\C(=O)C2=C(C=CC=C2)C1=O,108,104,118,125,128,120,127,125,122,116,123,107,119,109,130,125,118,125,135,134,139,131,119,122,121,130,127,137,128,118,120,131,128
CC(C)[C@@H](C[S+](=O)([O-])C(C)C)N1C(=O)[C@@](C)(CC(=O)O)C[C@H](c2cccc(Cl)c2)[C@H]1c1ccc(Cl)cc1,109,103,108,106,113,71.2,17.2,14,15.4,17.7,15.6,109,111,114,114,120,107,63.3,50.6,21.7,11.7,12.1,119,117,120,123,122,112,81.2,59.7,25.7,18.1,21.1
C[N+]1(C)[C@@H]2C[C@@H](OC(=O)[C@H](CO)c3ccccc3)C[C@H]1[C@@H]1O[C@@H]12.[Br-],88.6,94.2,94.3,102,104,104,96.9,90.8,100,106,102,95,103,105,99.1,108,99.2,101,98.7,97.8,122,110,82.4,47.6,90.7,90.7,97.8,99.5,101,89.9,91.2,99.6,103
CN1\C(=C(\O)C2=C(C=CS2)[S+]1([O-])=O)C(=O)NC3=CC=CC=N3,110,105,114,116,114,111,110,105,106,103,104,110,128,119,116,118,118,118,92.1,103,97.9,101,117,113,116,115,118,111,110,109,100,105,109
Cc1cccc(-c2nn(C(=S)Nc3ccccc3)cc2-c2ccnc3ccccc23)n1,115,122,120,117,117,109,113,101,109,86.3,78.3,115,123,113,124,109,117,111,100,108,91.4,74.3,121,109,122,114,118,110,119,108,98.9,49,73.1
NC(CO)(CO)CCc1ccc(Sc2cccc(OCc3ccccc3)c2)cc1Cl,99.1,101,110,114,115,122,88.5,106,76.2,18.4,6.24,91.8,99.7,101,111,102,102,86.4,104,72.1,34.9,5.17,101,112,99.6,116,113,109,89.9,100,70.3,45.7,5.62
O=C(/C=C/c1c(C(=O)[O-])[nH]c2cc(Cl)cc(Cl)c12)Nc1ccccc1,106,111,105,103,116,114,115,116,113,111,109,98,105,107,106,108,110,112,120,104,107,106,103,99.5,107,110,107,108,103,107,66.2,108,113
Cc1c(Cn2c(C)nc3c(C(=O)O)cc(N4CCOCC4)cc32)cccc1C(F)(F)F,102,109,107,116,115,108,120,106,104,110,87.8,98.6,100,108,115,111,102,113,109,99.5,89.2,94.2,92.9,112,109,122,115,106,119,111,96.9,107,100
CCOc1cc(N)c(Cl)cc1C(=O)NCC1CN(Cc2ccc(F)cc2)CCO1 (stereo not given),104,110,106,110,110,111,109,100,119,112,109,107,116,106,112,109,115,115,115,115,119,112,99.3,106,106,102,108,117,107,112,106,105,104
O=C1\C=C/C[C@@H]2[C@H]3CCCN4CCC[C@@H](CN12)[C@@H]34,98.2,103,107,101,108,99.2,98.1,104,98.9,99.1,89.6,103,116,109,101,98.5,94.8,98.5,85.7,93.5,96.8,89.7,102,98.5,97.8,105,98.4,94,105,95.7,100,94.3,86.8
Cn1c(Nc2ccc(C(F)(F)F)cc2)nc2cc(Oc3ccnc(-c4nc(C(F)(F)F)c[nH]4)c3)ccc21,120,112,119,93,133,125,126,123,111,81.8,27.1,–,–,–,–,–,–,–,–,–,–,–,–,–,–,–,–,–,–,–,–,–,–
CCCCCCCc1ccc(CCc2cccc(O)c2C(=O)O)cc1,122,124,126,124,119,111,123,110,108,104,90.2,125,121,127,129,128,119,107,111,104,97.7,91.3,–,–,–,–,–,–,–,–,–,–,–
O=C(O)c1ccc(-n2nc(-c3ccccc3O)nc2-c2ccccc2O)cc1,96.8,114,104,107,104,108,108,99.9,82,70,48.9,82.8,94.8,107,99.8,102,104,101,104,73.3,53.3,29.3,86.7,103,105,96.2,95.5,102,102,96.7,79.7,55.7,22.2
CC1(C)C(=O)N(CCN2CCC(C(=O)c3ccc(F)cc3)CC2)c2ccccc21,112,116,117,120,118,123,126,122,120,120,113,–,–,–,–,–,–,–,–,–,–,–,109,110,118,123,126,125,121,123,115,97.9,93.5
Cc1cccc(C)c1OCC(=O)N[C@@H](Cc1ccccc1)[C@@H](O)C[C@H](Cc1ccccc1)NC(=O)[C@H](C(C)C)N1CCCNC1=O,99.5,96.1,98.2,102,95.7,97,91.9,89.1,90.2,86.2,61.8,98.5,101,93.9,96,102,99.6,97.4,91.7,91.3,87.1,56.8,91.6,87.8,94.1,88.7,91.2,90.1,93.6,79.2,85.6,83.9,54.8
COc1cc2c(Nc3ccc(Cl)c(Cl)c3F)ncnc2cc1OC[C@@H]1C[C@@H]2CN(C)C[C@@H]2C1,105,115,118,126,119,111,109,83.2,71.1,49.5,10.1,–,–,–,–,–,–,–,–,–,–,–,–,–,–,–,–,–,–,–,–,–,–
